Holding throughout (assay type): binding
One assay concerns the target T1, OXER1 (Homo sapiens, UniProt Q8TDS5).
T1 construct: purchased Promega (in-house HiBiT-GPCR construct library, NanoBRET)
Put plainly: NanoBRET screen HiBiT-OXER1 in HEK293. How it is done:
(§1) Each tracer candidate was screened across the entire library of HiBiT-GPCR constructs using NanoBRET as the detection modality. As depicted in Figure 4A, the specificity of interactions was evaluated through decrease in BRET due to competitive displacement of a bound tracer by excess parental compound. Each tracer was analyzed for binding to each HiBiT-GPCR fusion in the absence and in the presence of competing parental compound. Briefly, HEK293 cells were transfected with HiBiT-GPCR constructs diluted into promoterless DNA to reduce expression and maximize translocation to the cell surface. Each tracer candidate was then screened at concentrations of 1 μM and 0.1 μM across cells expressing these fusions. Cells were treated for 1.5 h with tracer either alone or in the presence of 20 μM competing parental compound (i.e., control). BRET was measured upon addition of purified LgBiT and subsequent complementation with HiBiT genetically fused to a GPCR. The specificity of interactions was assessed through a decrease in BRET signal due to competitive displacement of the bound tracer. To further gauge the robustness of these interactions, the fold response over the control (i.e., BRETtracer/BRETcontrol) was calculated. We chose a 1.5-fold response, which translates to ≥7-fold signal over noise as the minimal threshold required to score an interaction as positive. […]. Below we highlight the screening results obtained for our exemplary fluorescent tracers based on Clozapine, Amitriptyline and AZD1283.
(§2) HiBiT-GPCR DNA constructs were diluted in 10 mM Tris pH 8 to a final concentration of 0.01 μg/μL, arrayed in 96-well plates and stored at −20 °C. For transfection, HEK293 cells were suspended in Opti-MEM (without phenol red) supplemented with 2% fetal bovine serum (Seradigm) and 100 units/mL penicillin–streptomycin (Gibco) at a final concentration of 220,000 cells/mL and dispensed into white 96-well plates at 90 μL/well. Subsequent transfections and screens were carried using an Agilent Bravo Automated Liquid Handling Platform. First, the 96-well HiBiT DNA arrays were diluted 25-fold in Opti-MEM (without serum or phenol red) to a final concentration of 0.0004 μg/μL and 20 μL of the diluted DNAs were transferred into new 96-well plates. Next, promoterless carrier DNA (1 μg/μL) was diluted 25-fold (0.04 μg/μL) and then dispensed into the diluted arrays at 20 μL/well. Following brief mixing, Viafect transfection reagent (Promega) diluted 16-fold into Opti-MEM was dispensed into the plates at 40 μL/well. After mixing by pipetting, plates were incubated for 10 min on the pipetting station deck. The DNA-transfection reagent complexes were then added to plates containing cells. To facilitate the screen, 10 μL of DNA-transfection reagent complexes were added in duplicates to the top 4 and bottom 4 rows, resulting in two identical 48-well arrays per plate. Plates with transfected cells were incubated for 18–20 h at 37 °C/5% CO2. A screen of each tracer across the entire library using two different concentrations requires duplicate plates of transfected cells. Depending on the number of tracers being screened, transfections can be scaled up using the same ratios. The next day, for each tracer, four 20× screening solutions in tracer dilution buffer (Promega) were prepared: two duplicates at final concentration of 20 μM and two duplicates at a final concentration of 2 μM. A competing unmodified compound was added to one of each duplicate at a final concentration of 400 μM. The four resulting solutions were diluted 4-fold in Opti-MEM without serum or phenol red to generate 5× solutions (5 µM and 0.5 µM tracer +/− 100 μM competing compound). To screen the library, a BioTek MultiFlo FX liquid dispenser was used to dispense 22.5 µL of tracer solution to the top 4 rows and 22.5 µL tracer + competing compound solution to the 4 bottom rows. Plates were briefly mixed on an orbital shaker and incubated for 1.5 h at room temperature. […]
On the technique in general: Bioluminescence resonance energy transfer reports proximity on the nanometre scale.

For another assay, the target named is T2, TBXA2R (Homo sapiens, UniProt P21731).
T2 construct: purchased Promega (in-house HiBiT-GPCR construct library, NanoBRET)
T2 sequence (P21731 1-343): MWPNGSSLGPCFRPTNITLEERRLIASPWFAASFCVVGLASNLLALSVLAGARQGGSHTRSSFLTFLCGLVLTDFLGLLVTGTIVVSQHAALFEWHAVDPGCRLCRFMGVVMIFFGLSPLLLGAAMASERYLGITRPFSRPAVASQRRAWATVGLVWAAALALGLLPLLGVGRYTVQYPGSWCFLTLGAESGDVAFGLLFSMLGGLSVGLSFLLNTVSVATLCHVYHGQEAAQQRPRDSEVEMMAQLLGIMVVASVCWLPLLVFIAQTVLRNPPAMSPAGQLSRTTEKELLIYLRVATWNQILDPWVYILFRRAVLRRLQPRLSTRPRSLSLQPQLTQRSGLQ
Put plainly: NanoBRET screen HiBiT-TBXA2R in HEK293. As for the experimental part: as §1, §2

In a further assay the target is T3, NPBWR1 (Homo sapiens, UniProt P48145).
T3 construct: purchased Promega (in-house HiBiT-GPCR construct library, NanoBRET)
T3 sequence (P48145 1-328): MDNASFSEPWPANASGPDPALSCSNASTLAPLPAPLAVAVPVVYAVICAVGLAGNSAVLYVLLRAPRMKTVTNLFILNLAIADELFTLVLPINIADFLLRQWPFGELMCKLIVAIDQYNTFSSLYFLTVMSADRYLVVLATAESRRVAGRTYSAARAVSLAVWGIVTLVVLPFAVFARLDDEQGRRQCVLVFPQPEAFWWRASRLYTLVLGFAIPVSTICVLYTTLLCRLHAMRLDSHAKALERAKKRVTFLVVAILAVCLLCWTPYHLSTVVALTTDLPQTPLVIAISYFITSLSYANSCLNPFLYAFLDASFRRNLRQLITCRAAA
Put plainly: NanoBRET screen HiBiT-NPBWR1 in HEK293. As for the experimental part:
as §1, §2

For a further assay, the target named is T4, CX3CR1 (Homo sapiens, UniProt P49238).
T4 construct: purchased Promega (in-house HiBiT-GPCR construct library, NanoBRET)
T4 sequence (P49238 1-355): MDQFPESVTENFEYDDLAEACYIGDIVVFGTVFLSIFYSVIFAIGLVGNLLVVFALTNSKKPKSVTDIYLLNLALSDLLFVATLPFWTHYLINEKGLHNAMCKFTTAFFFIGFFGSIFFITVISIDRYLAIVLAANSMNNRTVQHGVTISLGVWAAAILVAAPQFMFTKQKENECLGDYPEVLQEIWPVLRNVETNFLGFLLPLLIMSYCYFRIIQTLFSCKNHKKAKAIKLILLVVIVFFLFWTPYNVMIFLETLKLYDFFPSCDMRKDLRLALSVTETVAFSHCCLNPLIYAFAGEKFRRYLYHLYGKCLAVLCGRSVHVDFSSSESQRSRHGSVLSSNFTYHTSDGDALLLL
Put plainly: NanoBRET screen HiBiT-CX3CR1 in HEK293. How it is done: as §1, §2

In a further assay the target is T5, NPFFR2 (Homo sapiens, UniProt Q9Y5X5).
T5 construct: purchased Promega (in-house HiBiT-GPCR construct library, NanoBRET)
T5 sequence (Q9Y5X5 whole entry): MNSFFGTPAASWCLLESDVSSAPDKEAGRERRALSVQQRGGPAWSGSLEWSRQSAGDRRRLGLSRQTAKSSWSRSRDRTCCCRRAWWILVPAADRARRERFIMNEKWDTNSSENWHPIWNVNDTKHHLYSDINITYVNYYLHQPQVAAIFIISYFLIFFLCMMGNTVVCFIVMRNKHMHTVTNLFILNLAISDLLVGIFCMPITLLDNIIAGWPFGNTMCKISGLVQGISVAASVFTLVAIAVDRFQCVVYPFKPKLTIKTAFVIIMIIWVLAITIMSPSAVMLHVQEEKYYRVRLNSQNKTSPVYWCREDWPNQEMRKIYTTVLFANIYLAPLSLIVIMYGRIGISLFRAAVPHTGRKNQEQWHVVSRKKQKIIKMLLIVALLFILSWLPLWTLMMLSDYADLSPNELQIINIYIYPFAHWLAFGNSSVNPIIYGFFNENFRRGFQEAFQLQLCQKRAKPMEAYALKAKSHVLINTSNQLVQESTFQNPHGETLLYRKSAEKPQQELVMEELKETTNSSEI
Put plainly: NanoBRET screen HiBiT-NPFFR2 in HEK293. How it is done: as §1, §2

The structures appear in SMILES notation.

T1 sequence (Q8TDS5 whole entry): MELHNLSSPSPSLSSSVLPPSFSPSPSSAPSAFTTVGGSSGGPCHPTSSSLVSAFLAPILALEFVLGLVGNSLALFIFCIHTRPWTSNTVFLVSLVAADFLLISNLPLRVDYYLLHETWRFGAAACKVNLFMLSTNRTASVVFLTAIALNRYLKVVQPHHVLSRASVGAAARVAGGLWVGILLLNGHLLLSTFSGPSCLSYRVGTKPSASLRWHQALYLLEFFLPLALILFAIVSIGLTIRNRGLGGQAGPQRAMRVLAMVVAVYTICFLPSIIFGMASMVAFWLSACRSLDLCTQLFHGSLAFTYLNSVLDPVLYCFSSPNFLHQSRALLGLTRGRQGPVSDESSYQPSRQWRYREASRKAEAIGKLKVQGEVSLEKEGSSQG

Take `O=C(CCc1ccc2n1[B-](F)(F)[N+]1=C(c3ccc[nH]3)C=CC1=C2)NCc1ccc(C(=O)NCCOCCC(=O)N[C@@H]2CC[C@@]3(O)[C@H]4Cc5ccc(O)c6c5[C@@]3(CCN4CC3CC3)[C@H]2O6)cc1` [Naltrexone-3-NB590]: the “NanoBRET Fold Response” value at OXER1 (OXER1, tracer 0.1μM) came out at 0.78; on OXER1 (OXER1, tracer 1μM) it was 0.74; at TBXA2R (TBXA2R, tracer 0.1μM) it was 1.24; on TBXA2R (TBXA2R, tracer 1μM), 1.13; on NPBWR1 (NPBWR1, tracer 0.1μM) it was 0.92; at NPBWR1 (NPBWR1, tracer 1μM) it was 1.19. For the same compound, the “NanoBRET Fold Response” value at CX3CR1 (CX3CR1, tracer 0.1μM) is recorded as 1.32; at CX3CR1 (CX3CR1, tracer 1μM), 0.81; on NPFFR2 (NPFFR2, tracer 0.1μM), 1.01; on NPFFR2 (NPFFR2, tracer 1μM) it was 0.95.
`CN1CCN(C2=Nc3cc(Cl)ccc3N(CC(=O)NCCOCCOCCOCCOCCNC(=O)CCc3ccc4n3[B-](F)(F)[N+]3=C(c5ccc[nH]5)C=CC3=C4)c3ccccc32)CC1` [Clozapine-c-2-NB590]: the “NanoBRET Fold Response” value on OXER1 (OXER1, 0.1μM tracer) was 1.00; at OXER1 (OXER1, 1μM tracer) it was 0.94; on TBXA2R (TBXA2R, 0.1μM tracer) it was 1.03; on TBXA2R (TBXA2R, 1μM tracer) it was 0.95; on NPBWR1 (NPBWR1, 0.1μM tracer) it was 0.97; at NPBWR1 (NPBWR1, 1μM tracer) it was 1.00. The “NanoBRET Fold Response” value at CX3CR1 (CX3CR1, 0.1μM tracer) turned out to be 0.95; at CX3CR1 (CX3CR1, 1μM tracer) it was 0.92; on NPFFR2 (NPFFR2, 0.1μM tracer), 0.98; on NPFFR2 (NPFFR2, 1μM tracer) it was 0.99.
As to `O=C(CCOCCOCCOCCOCCNC(=O)CCc1ccc2n1[B-](F)(F)[N+]1=C(c3ccc[nH]3)C=CC1=C2)NCCCN1CCN(C2=Nc3cc(Cl)ccc3Nc3ccccc32)CC1` [Clozapine-a-2-NB590], the “NanoBRET Fold Response” value on OXER1 (OXER1, 0.1μM tracer) was found to be 0.95; on OXER1 (OXER1, 1μM tracer), 1.00; on TBXA2R (TBXA2R, 0.1μM tracer), 1.08; at TBXA2R (TBXA2R, 1μM tracer), 1.08; on NPBWR1 (NPBWR1, 0.1μM tracer) it was 1.07; at NPBWR1 (NPBWR1, 1μM tracer), 1.03. Besides, the “NanoBRET Fold Response” value on CX3CR1 (CX3CR1, 0.1μM tracer) was determined as 1.08; at CX3CR1 (CX3CR1, 1μM tracer), 1.07; at NPFFR2 (NPFFR2, 0.1μM tracer), 1.00; at NPFFR2 (NPFFR2, 1μM tracer), 0.97.
`CCOC(=O)c1cc(C#N)c(N2CCC(C(=O)NS(=O)(=O)Cc3ccccc3/C=C/C(=O)NCCNC(=O)CCc3ccc4n3[B-](F)(F)[N+]3=C(c5ccc[nH]5)C=CC3=C4)CC2)nc1C` [AZD1283-1-NB590]: the “NanoBRET Fold Response” value is 0.50 on OXER1 (OXER1, 0.1μM); 1.03 at OXER1 (OXER1, 1μM); 1.04 at TBXA2R (TBXA2R, 0.1μM); 1.19 on TBXA2R (TBXA2R, 1μM); 1.02 at NPBWR1 (NPBWR1, 0.1μM); 0.98 at NPBWR1 (NPBWR1, 1μM). Moreover, the “NanoBRET Fold Response” value came out at 1.09 at CX3CR1 (CX3CR1, 0.1μM); 1.08 at CX3CR1 (CX3CR1, 1μM); 1.01 on NPFFR2 (NPFFR2, 0.1μM); 1.15 at NPFFR2 (NPFFR2, 1μM).
On to `COc1ccc2[nH]c(-c3ccc(CNC(=O)CCOCCOCCOCCOCCNC(=O)CCc4ccc5n4[B-](F)(F)[N+]4=C(c6ccc[nH]6)C=CC4=C5)cc3)c(CCNC(C)=O)c2n1` [AzomelatoninICO9-2-NB590], for which the “NanoBRET Fold Response” value at OXER1 (0.1μM tracer) was 1.11; at OXER1 (1μM tracer) it was 0.83; at TBXA2R (0.1μM tracer), 1.27; on TBXA2R (1μM tracer), 0.99; on NPBWR1 (0.1μM tracer), 0.87; at NPBWR1 (1μM tracer) it was 1.04. The “NanoBRET Fold Response” value was found to be 1.07 on CX3CR1 (0.1μM tracer), 1.19 at CX3CR1 (1μM tracer), 0.91 on NPFFR2 (0.1μM tracer) and 1.06 on NPFFR2 (1μM tracer).
Consider `CCCn1c(=O)c2[nH]c(-c3ccc(OCC(=O)NCCNC(=O)CCOCCNC(=O)c4ccc(CNC(=O)CCc5ccc6n5[B-](F)(F)[N+]5=C(c7ccc[nH]7)C=CC5=C6)cc4)cc3)nc2n(CCC)c1=O` [XAC-3-NB590], for which the “NanoBRET Fold Response” value stood at 1.04 at OXER1 (OXER1, tracer 0.1μM); 0.96 at OXER1 (OXER1, tracer 1μM); 1.04 on TBXA2R (TBXA2R, tracer 0.1μM); 1.04 on TBXA2R (TBXA2R, tracer 1μM); 1.03 at NPBWR1 (NPBWR1, tracer 0.1μM); 0.96 at NPBWR1 (NPBWR1, tracer 1μM). The “NanoBRET Fold Response” value at CX3CR1 (CX3CR1, tracer 0.1μM) amounted to 0.87; at CX3CR1 (CX3CR1, tracer 1μM), 0.83; on NPFFR2 (NPFFR2, tracer 0.1μM), 1.02; at NPFFR2 (NPFFR2, tracer 1μM), 1.02.
As for `CN(CCC=C1c2ccccc2CCc2ccccc21)C(=O)CCOCCOCCOCCOCCNC(=O)CCc1ccc2n1[B-](F)(F)[N+]1=C(c3ccc[nH]3)C=CC1=C2` [Amitriptyline-e-2-NB590], the “NanoBRET Fold Response” value at CX3CR1 (tracer at 1μM) is 0.99.
With `CN(C)CCC=C1c2ccccc2CCc2ccc(C(=O)NCCNC(=O)CCOCCOCCOCCOCCNC(=O)CCc3ccc4n3[B-](F)(F)[N+]3=C(c5ccc[nH]5)C=CC3=C4)cc21` [Amitriptyline-a-2-NB590], the entries for the “NanoBRET Fold Response” value on CX3CR1 (tracer at 0.1μM) and on CX3CR1 (tracer at 1μM) were 1.07 and 0.99, respectively.
